Like-named read-outs stand apart in the source and are kept apart here.
Tested on: TGFβ signal
Experiment: TGFβ signal inhibitory activity, (SBE)4-Luc reporter in A549 cells (Test Examples 1A and 1B)
Type: cell-based, human
Settings: Homo sapiens
Procedure, shortened: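 Compounds at 3 µM and 10 µM (some 1 µM) were added with 2 ng/ml TGFβ-1 to A549 cells stably expressing an SBE-driven luciferase, then cultured 4 hr. Chemiluminescent luciferase signal gave % inhibition versus TGFβ-alone and no-TGFβ controls.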

[1] = A549, test compound 3 µM, Reference Examples, Table 1B, read-out: TGFβ inhibition rate, %
[2] = A549, test compound 10 µM, Reference Examples, Table 1B, read-out: TGFβ inhibition rate, %
[3] = A549, read-out: TGFβ inhibition rate, %

CCc1ccc(Oc2ccnc3ccc(OCCOC(=O)C(C)(C)CC)cc23)c(-c2ncccn2)n1 [Compound 224, 2-[4-(6-Ethyl-2-pyrimidin-2-yl-pyridin-3-yloxy)-quinolin-6-yloxy]-ethyl 2,2-dimethyl-butanoate]
inhibition at 3 µM (A549, test compound 3 µM, TGFβ-1 2 ng/ml, 4 hr, Table 1A, read-out: TGFβ inhibition rate, %): 95% | inhibition at 10 µM (A549, test compound 10 µM, TGFβ-1 2 ng/ml, 4 hr, Table 1A, read-out: TGFβ inhibition rate, %): 100%

COc1cc2nccc(Oc3ccccc3Cc3ccccc3)c2cc1OC [Compound r1, 4-(2-Benzylphenoxy)-6,7-dimethoxyquinoline]
inhibition at 3 µM [1]: 5% | inhibition at 10 µM [2]: 53%

CC=Cc1ccccc1Oc1ccnc2cc(OC)c(OC)cc12 [Compound r2]
inhibition at 3 µM [1]: 13% | inhibition at 10 µM [2]: 88%

COc1cc2nccc(Oc3ccc(C)cc3Cl)c2cc1OC [Compound r3]
inhibition at 3 µM [1]: 0% | inhibition at 10 µM [2]: 75%

COc1cc2nccc(Oc3ccc(C)cc3Br)c2cc1OC [Compound r4]
inhibition at 3 µM [1]: 20% | inhibition at 10 µM [2]: 78%

COc1cc2nccc(Oc3ccc(C)cc3CN3CCCCC3)c2cc1OC [Compound r6, 6,7-Dimethoxy-4-[4-methyl-2-(piperidinomethyl)phenoxy]quinoline]
inhibition at 3 µM [1]: 30% | inhibition at 10 µM [2]: 72%

COc1ccc(Oc2ccnc3cc(OC)c(OC)cc23)c(/C=C/c2ccccc2)c1 [Compound r7, 6,7-Dimethoxy-4-{4-methoxy-2-[(E)-2-phenyl-1-ethenyl]phenoxy}quinoline]
inhibition at 3 µM [1]: 13% | inhibition at 10 µM [2]: 54%

CCC(O)c1cc(C)ccc1Oc1ccnc2cc(OC)c(OC)cc12 (stereo not drawn) [Compound r9, 1-{2-[(6,7-Dimethoxy-4-quinolyl)oxy]-5-methylphenyl}-1-propanol]
inhibition at 3 µM [1]: 29% | inhibition at 10 µM [2]: 77%

CCC(O)c1cc(OC)ccc1Oc1ccnc2cc(OC)c(OC)cc12 (stereo not drawn) [Compound r11]
inhibition at 3 µM [1]: 28% | inhibition at 10 µM [2]: 66%

COc1cc2nccc(Oc3ccc(C)cc3Nc3ccccc3)c2cc1OC [Compound r14, N-[2-[(6,7-Dimethoxy-4-quinolyl)oxy]-5-methylphenyl]-N-phenylamine]
inhibition at 3 µM [1]: 15% | inhibition at 10 µM [2]: 64%

COc1cc2nccc(Oc3cccc4ccccc34)c2cc1OC [Compound r16]
inhibition at 3 µM [1]: 0% | inhibition at 10 µM [2]: 62%

COc1cc2nccc(Oc3ccc4ccccc4c3)c2cc1OC [Compound r17]
inhibition at 3 µM [1]: 15% | inhibition at 10 µM [2]: 80%

COc1cc2nccc(Oc3ccc4c(c3)C(=O)c3ccccc3-4)c2cc1OC [Compound r19]
inhibition at 3 µM [1]: 73% | inhibition at 10 µM [2]: 95%

COc1cc2nccc(Oc3ccc4c(ccn4C)c3)c2cc1OC [Compound r20, 6,7-Dimethoxy-4-[(1-methyl-5-indolyl)oxy]quinoline]
inhibition at 3 µM [1]: 19% | inhibition at 10 µM [2]: 69%

COc1cc2nccc(Oc3ccc4c(ccn4C(C)=O)c3)c2cc1OC [Compound r21]
inhibition at 3 µM [1]: 16% | inhibition at 10 µM [2]: 71%

CCOC(=O)c1cc2cc(Oc3ccnc4cc(OC)c(OC)cc34)ccc2[nH]1 [Compound r22]
inhibition at 3 µM [1]: 11% | inhibition at 10 µM [2]: 81%

COc1cc2nccc(Oc3ccc4c(c3)COC(=O)N4)c2cc1OC [Compound r23, 6-[(6,7-Dimethoxy-4-quinolyl)oxy]-1,4-dihydro-2H-3,1-benzoxazin-2-one]
inhibition at 3 µM [1]: 56% | inhibition at 10 µM [2]: 91%

COc1ccc(Oc2ccnc3cc(OC)c(OC)cc23)c(C=O)c1 [Compound r26]
inhibition at 3 µM [1]: 20% | inhibition at 10 µM [2]: 73%

COc1cc2nccc(Oc3ccc4ccccc4c3C=O)c2cc1OC [Compound r27]
inhibition at 3 µM [1]: 0% | inhibition at 10 µM [2]: 93%

COc1cc2nccc(Oc3cc4c5c(c3C=O)CCCN5CCC4)c2cc1OC [Compound r28]
inhibition at 3 µM [1]: 0% | inhibition at 10 µM [2]: 53%

COc1cc2nccc(Oc3ccccc3C(C)=O)c2cc1OC [Compound r29]
inhibition at 3 µM [1]: 0% | inhibition at 10 µM [2]: 67%

COc1cc2nccc(Oc3c(OC)cccc3C(C)=O)c2cc1OC [Compound r30]
inhibition at 3 µM [1]: 0% | inhibition at 10 µM [2]: 61%

COc1cc2nccc(Oc3cc(C)ccc3C(C)=O)c2cc1OC [Compound r32]
inhibition at 3 µM [1]: 81% | inhibition at 10 µM [2]: 98%

COc1cc2nccc(Oc3ccc(C)cc3C(C)=O)c2cc1OC [Compound r35]
inhibition at 3 µM [1]: 49% | inhibition at 10 µM [2]: 89%

COc1cc2nccc(Oc3cc(C)c(Cl)cc3C(C)=O)c2cc1OC [Compound r37]
inhibition at 3 µM [1]: 94% | inhibition at 10 µM [2]: 100%

COc1cc2nccc(Oc3cc(C)c(C)cc3C(C)=O)c2cc1OC [Compound r38]
inhibition at 3 µM [1]: 98% | inhibition at 10 µM [2]: 100%

COc1cc(Oc2ccnc3cc(OC)c(OC)cc23)c(C(C)=O)cc1OC [Compound r39]
inhibition at 3 µM [1]: 0% | inhibition at 10 µM [2]: 91%

COc1cc2nccc(Oc3c(C(C)=O)ccc4ccccc34)c2cc1OC [Compound r41]
inhibition at 3 µM [1]: 57% | inhibition at 10 µM [2]: 97%

CCC(=O)c1ccc(OCc2ccccc2)cc1Oc1ccnc2cc(OC)c(OC)cc12 [Compound r45]
inhibition at 3 µM [1]: 0% | inhibition at 10 µM [2]: 67%

CCC(=O)c1cc(I)ccc1Oc1ccnc2cc(OC)c(OC)cc12 [Compound r47]
inhibition at 3 µM [1]: 45% | inhibition at 10 µM [2]: 98%

CCC(=O)c1cc(C)ccc1Oc1ccnc2cc(OC)c(OC)cc12 [Compound r48]
inhibition at 3 µM [1]: 98% | inhibition at 10 µM [2]: 100%

CCC(=O)c1cc(C(C)(C)C)ccc1Oc1ccnc2cc(OC)c(OC)cc12 [Compound r49]
inhibition at 3 µM [1]: 0% | inhibition at 10 µM [2]: 62%

CCC(=O)c1cc(OC)ccc1Oc1ccnc2cc(OC)c(OC)cc12 [Compound r50]
inhibition at 3 µM [1]: 100% | inhibition at 10 µM [2]: 100%

CCC(=O)c1cc(OC(F)(F)F)ccc1Oc1ccnc2cc(OC)c(OC)cc12 [Compound r51]
inhibition at 3 µM [1]: 71% | inhibition at 10 µM [2]: 99%

CCCCC(=O)c1cc(C)ccc1Oc1ccnc2cc(OC)c(OC)cc12 [Compound r52]
inhibition at 3 µM [1]: 97% | inhibition at 10 µM [2]: 100%

COc1cc2nccc(Oc3ccc(C)cc3C(=O)C(C)C)c2cc1OC [Compound r53]
inhibition at 3 µM [1]: 97% | inhibition at 10 µM [2]: 100%

COc1cc2nccc(Oc3ccc(C)cc3C(=O)C(C)(C)C)c2cc1OC [Compound r54]
inhibition at 3 µM [1]: 13% | inhibition at 10 µM [2]: 73%

COc1cc2nccc(Oc3ccc(C)cc3C(=O)CC(C)(C)C)c2cc1OC [Compound r55]
inhibition at 3 µM [1]: 53% | inhibition at 10 µM [2]: 98%

COc1cc2nccc(Oc3ccc(C)cc3C(=O)CCC3CCCC3)c2cc1OC [Compound r56]
inhibition at 3 µM [1]: 0% | inhibition at 10 µM [2]: 84%

COc1cc2nccc(Oc3ccc(C)cc3C(=O)C3CCCCC3)c2cc1OC [Compound r59]
inhibition at 3 µM [1]: 65% | inhibition at 10 µM [2]: 99%

COc1cc2nccc(Oc3ccc(C)cc3C(=O)c3ccco3)c2cc1OC [Compound r60]
inhibition at 3 µM [1]: 63% | inhibition at 10 µM [2]: 98%

COc1cc2nccc(Oc3ccc(C)cc3C(=O)c3ccno3)c2cc1OC [Compound r61]
inhibition at 3 µM [1]: 61% | inhibition at 10 µM [2]: 98%

COc1cc2nccc(Oc3ccccc3C(=O)c3ccccc3)c2cc1OC [Compound r63]
inhibition at 3 µM [3]: 57% | inhibition at 10 µM [3]: 91%

COc1ccc(C(=O)c2ccccc2)c(Oc2ccnc3cc(OC)c(OC)cc23)c1 [Compound r64]
inhibition at 3 µM [1]: 67% | inhibition at 10 µM [2]: 98%

COc1ccc(C(=O)c2ccc(C)cc2)c(Oc2ccnc3cc(OC)c(OC)cc23)c1 [Compound r65]
inhibition at 3 µM [1]: 58% | inhibition at 10 µM [2]: 100%

CCCCCCCCOc1ccc(C(=O)c2ccccc2)c(Oc2ccnc3cc(OC)c(OC)cc23)c1 [Compound r66]
inhibition at 3 µM [1]: 22% | inhibition at 10 µM [2]: 86%

C=C(C)C(=O)Oc1ccc(C(=O)c2ccccc2)c(Oc2ccnc3cc(OC)c(OC)cc23)c1 [Compound r67]
inhibition at 3 µM [1]: 4% | inhibition at 10 µM [2]: 93%

COc1cc2nccc(Oc3ccc(Cl)cc3C(=O)c3ccccc3)c2cc1OC [Compound r69]
inhibition at 3 µM [3]: 100%

COc1cc2nccc(Oc3ccc(Br)cc3C(=O)c3ccccc3)c2cc1OC [Compound r70]
inhibition at 3 µM [1]: 73% | inhibition at 10 µM [2]: 100%

COC(=O)c1cc2ccccc2cc1Oc1ccnc2cc(OC)c(OC)cc12 [Compound r79, Methyl 3-[(6,7-Dimethoxy-4-quinolyl)oxy]naphthalene-2-carboxylate]
inhibition at 3 µM [1]: 97% | inhibition at 10 µM [2]: 100%

CCOC(=O)c1ccccc1Oc1ccnc2cc(OC)c(OC)cc12 [Compound r80]
inhibition at 3 µM [1]: 62% | inhibition at 10 µM [2]: 95%

CCOC(=O)c1ccc(Cl)cc1Oc1ccnc2cc(OC)c(OC)cc12 [Compound r81]
inhibition at 3 µM [1]: 91% | inhibition at 10 µM [2]: 100%

CCOC(=O)c1ccc(C)cc1Oc1ccnc2cc(OC)c(OC)cc12 [Compound r82]
inhibition at 3 µM [1]: 90% | inhibition at 10 µM [2]: 99%

CCOC(=O)c1cc(F)ccc1Oc1ccnc2cc(OC)c(OC)cc12 [Compound r83]
inhibition at 3 µM [1]: 41% | inhibition at 10 µM [2]: 81%

CCOC(=O)c1cc(Cl)ccc1Oc1ccnc2cc(OC)c(OC)cc12 [Compound r84]
inhibition at 3 µM [1]: 84% | inhibition at 10 µM [2]: 100%

CCOC(=O)c1cc(Br)ccc1Oc1ccnc2cc(OC)c(OC)cc12 [Compound r85]
inhibition at 3 µM [1]: 87% | inhibition at 10 µM [2]: 100%

CCOC(=O)c1cc(I)ccc1Oc1ccnc2cc(OC)c(OC)cc12 [Compound r86]
inhibition at 3 µM [1]: 68% | inhibition at 10 µM [2]: 99%

CCOC(=O)c1cc(C)ccc1Oc1ccnc2cc(OC)c(OC)cc12 [Compound r87]
inhibition at 3 µM [1]: 84% | inhibition at 10 µM [2]: 99%

CCOC(=O)c1cc(C(C)=O)ccc1Oc1ccnc2cc(OC)c(OC)cc12 [Compound r88]
inhibition at 3 µM [1]: 70% | inhibition at 10 µM [2]: 94%

— patent publication EP1724268A1, “COMPOUND HAVING TGF-BETA INHIBITORY ACTIVITY AND PHARMACEUTICAL COMPOSITION CONTAINING SAME” (KIRIN BEER KABUSHIKI KAISHA, priority 2004, dated 2005)
